Usually inhibition stands for the share of the control response that was lost under treatment. A low value points to little suppression. Broadly, the IC50 is the concentration that gives 50% inhibition.

T1 sequence (P13612 34-1032): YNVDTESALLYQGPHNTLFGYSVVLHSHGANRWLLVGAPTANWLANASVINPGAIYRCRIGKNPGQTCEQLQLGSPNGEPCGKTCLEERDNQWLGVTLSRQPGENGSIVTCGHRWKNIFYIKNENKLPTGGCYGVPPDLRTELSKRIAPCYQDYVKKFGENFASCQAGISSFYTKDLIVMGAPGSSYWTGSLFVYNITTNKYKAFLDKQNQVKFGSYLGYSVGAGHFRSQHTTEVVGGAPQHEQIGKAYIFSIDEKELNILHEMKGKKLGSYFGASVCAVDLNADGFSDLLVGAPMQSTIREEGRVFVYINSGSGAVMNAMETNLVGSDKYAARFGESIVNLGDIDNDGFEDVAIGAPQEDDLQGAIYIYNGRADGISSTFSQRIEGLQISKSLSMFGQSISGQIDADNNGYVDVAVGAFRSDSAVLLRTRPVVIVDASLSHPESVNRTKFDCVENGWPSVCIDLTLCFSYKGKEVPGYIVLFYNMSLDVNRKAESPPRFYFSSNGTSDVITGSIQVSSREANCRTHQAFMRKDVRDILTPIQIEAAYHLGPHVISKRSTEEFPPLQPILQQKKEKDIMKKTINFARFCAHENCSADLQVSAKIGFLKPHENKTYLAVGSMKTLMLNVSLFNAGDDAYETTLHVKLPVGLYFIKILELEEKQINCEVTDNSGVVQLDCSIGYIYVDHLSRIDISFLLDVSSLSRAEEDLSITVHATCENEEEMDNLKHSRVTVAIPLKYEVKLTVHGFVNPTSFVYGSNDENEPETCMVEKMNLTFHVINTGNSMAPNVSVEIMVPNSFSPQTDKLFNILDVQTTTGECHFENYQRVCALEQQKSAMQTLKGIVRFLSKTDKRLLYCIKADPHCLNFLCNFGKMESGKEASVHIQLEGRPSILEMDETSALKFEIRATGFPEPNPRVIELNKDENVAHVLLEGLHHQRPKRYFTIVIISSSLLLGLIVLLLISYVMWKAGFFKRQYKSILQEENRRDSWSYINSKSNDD
T1 sequence (P05556 21-798): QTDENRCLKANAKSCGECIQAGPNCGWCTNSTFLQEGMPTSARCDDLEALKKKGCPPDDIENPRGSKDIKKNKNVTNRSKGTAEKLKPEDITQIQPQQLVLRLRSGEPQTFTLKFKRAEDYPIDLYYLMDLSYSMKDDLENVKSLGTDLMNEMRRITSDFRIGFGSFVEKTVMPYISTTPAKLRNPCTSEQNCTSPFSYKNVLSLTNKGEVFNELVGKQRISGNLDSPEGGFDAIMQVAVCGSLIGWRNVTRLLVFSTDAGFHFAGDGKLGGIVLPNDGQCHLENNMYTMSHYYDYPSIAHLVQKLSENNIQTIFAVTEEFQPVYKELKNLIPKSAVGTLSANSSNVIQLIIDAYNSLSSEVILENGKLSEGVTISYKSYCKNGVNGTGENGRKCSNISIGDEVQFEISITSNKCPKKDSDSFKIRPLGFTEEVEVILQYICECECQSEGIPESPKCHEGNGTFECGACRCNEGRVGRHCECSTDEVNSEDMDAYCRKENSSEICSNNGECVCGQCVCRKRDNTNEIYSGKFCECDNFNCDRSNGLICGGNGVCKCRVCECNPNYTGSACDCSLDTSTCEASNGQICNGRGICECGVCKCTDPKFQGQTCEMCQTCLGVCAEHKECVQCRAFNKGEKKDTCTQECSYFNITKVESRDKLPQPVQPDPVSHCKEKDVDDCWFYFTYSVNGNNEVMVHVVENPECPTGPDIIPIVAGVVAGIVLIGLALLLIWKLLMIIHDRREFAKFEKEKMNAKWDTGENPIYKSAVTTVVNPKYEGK

The first assay has as its target T1, VLA-4 (α4β1 integrin) binding to immobilized VCAM-1 (Homo sapiens, UniProt P05556+P13612).
T1 construct: followed by 10 μl of Ramos cell-derived VLA-4; endogenous in cells; host or cells: Ramos cells (VLA-4 preparation derived from the cells)
The assay can be described thus: VLA-4/VCAM-1 Screening Assay (solid-phase, dual antibody ELISA).
Conditions: not given
As for the experimental part:
VLA-4 antagonist activity, defined as ability to compete for binding to immobilized VCAM-1 was quantitated using a solid-phase, dual antibody ELISA. VLA-4 (α4β1 integrin) bound to VCAM-1 was detected by a complex of anti-integrin β1 antibody: HRP-conjugated anti-mouse IgG: chromogenic substrate (K-Blue). Initially, this entailed coating 96 well plates (Nunc Maxisorp) with recombinant human VCAM-1 (0.4 μg in 100 μl PBS), sealing each plate and then allowing the plates to stand at 4° C for Å18 hr. […] On the day of assay, all plates were washed twice with VCAM Assay Buffer (200 μl/well of 50 mM Tris-HCl, 100 mM NaCl, 1 mM MnCl2, 0.05% Tween 20; pH 7.4). Test compounds were dissolved in 100% DMSO and then diluted 1:20 in VCAM Assay Buffer supplemented with 1 mg/mL BSA (i.e., final DMSO=5%). […] 100 μl per well of each dilution was added to the VCAM-coated plates, followed by 10 μl of Ramos cell-derived VLA-4. These plates were sequentially mixed on a platform shaker for 1 min, incubated for 2 hr at 37° C. and then washed four times with 200 μl/well VCAM Assay Buffer. 100 μl of mouse anti-human integrin β1 antibody was added to each well (0.6 μg/mL in VCAM Assay Buffer+1 mg/mL BSA) and allowed to incubate for 1 hr at 37° C. At the conclusion of this incubation period, all plates were washed four times with VCAM Assay Buffer (200 μl/well). A corresponding second antibody, HRP-conjugated goat anti-mouse IgG (100 μl per well @1:800 dilution in VCAM Assay Buffer+1 mg/mL BSA), was then added to each well, followed by a 1 hr incubation at room temperature and concluded by three washes (200 μl/well) with VCAM Assay Buffer. Color development was initiated by addition of 100 μl K-Blue per well (15 min incubation, room temp) and terminated by addition of 100 μl Red Stop Buffer per well. […] Results were calculated as % inhibition of total binding (i.e., VLA-4+VCAM-1 in the absence of test compound).
On the technique in general: In an ELISA, binding on a coated surface is turned into a signal by an enzyme label.
Consider `CC(C)C(C(=O)N[C@@H](Cc1ccc(NC(=O)c2ccnc3ccccc23)cc1)C(=O)O)c1ccccc1` (some centres unmarked) [Example 76], for which the inhibition at 0.01 µM came to 73% and the inhibition at 0.1 µM stood at 93%.

The compound `O=C(Nc1ccc(C[C@H](NC(=O)C2(c3ccccc3)CCCC2)C(=O)O)cc1)c1ccnc2ccccc12` [Example 75] registered an inhibition at 0.01 µM of 68% and an inhibition at 0.1 µM of 92%.

Consider `CC1(C(=O)N[C@@H](Cc2ccc(NC(=O)c3ccnc4ccccc34)cc2)C(=O)O)CCCCC1` [Example 70], for which the inhibition at 0.01 µM came out at 49% and the inhibition at 0.1 µM came to 86%.

For `CCCC(C)(CC)C(=O)N[C@@H](Cc1ccc(NC(=O)c2ccnc3ccccc23)cc1)C(=O)O` (some centres unmarked) [Example 68], at 0.01 µM the inhibition was 49% and at 0.1 µM the inhibition was 86%.

`O=C(Nc1ccc(C[C@H](NC(=O)C23CC4CC(CC(C4)C2)C3)C(=O)O)cc1)c1ccnc2ccccc12` [Example 65] displayed an inhibition at 0.01 µM of 72% and an inhibition at 0.1 µM of 92%.

The assay is the same for the next values; noted with them: IC50 nM, Ramos cell-derived VLA-4, recombinant human VCAM-1 coated plates, 2 hr at 37° C.
Take `COc1cccc(CC2(C(=O)N[C@@H](Cc3ccc(NC(=O)c4c(Cl)cccc4Cl)cc3)C(=O)O)CCCC2)c1` [Example 52]: the concentration for half-maximal inhibition (IC50) amounted to 1.1 nM.

Staying with this assay, now noted: Ramos cell-derived VLA-4, recombinant human VCAM-1 coated plates, 2 hr at 37° C.; read-out: IC50.
Consider `COc1ccc(C2(C(=O)NC(Cc3ccc(NC(=O)C(Cc4ccc(O)cc4)NC(C)=O)cc3)C(=O)O)CCCCC2)cc1` (centres unmarked) [Example 106], for which the 50% inhibitory concentration (IC50) worked out at 13.5 nM.

As to `CC(C)C(C(=O)N[C@@H](Cc1ccc(NC(=O)c2ccnc3ccccc23)cc1)C(=O)O)c1ccccc1` (some centres unmarked) [Example 76], the IC50 was 4.6 nM.

Take `COc1ccc(C2(C(=O)NC(Cc3ccc(NC(=O)c4c(Cl)cccc4Cl)cc3)C(=O)O)CCCCC2)cc1` (centres unmarked) [Example 103]: the half-inhibitory concentration (IC50) turned out to be 0.7 nM.

On to `COc1ccc(CC2(C(=O)N[C@@H](Cc3ccc(NC(=O)c4ccc(F)cc4C(F)(F)F)cc3)C(=O)O)CCCC2)cc1` [Example 96], for which the IC50 turned out to be 17.4 nM.

As for `CCCCC(CC)C(=O)NCCC1(C(=O)N[C@@H](Cc2ccc(NC(=O)c3c(Cl)cccc3Cl)cc2)C(=O)O)CCCC1` (some centres unmarked) [Example 161], the IC50 was found to be 9.4 nM.

Turning to `COc1ccc(C2(C(=O)N[C@@H](Cc3ccc(N4C(=O)[C@H](C)N(C)C4=O)cc3)C(=O)O)CCCCC2)cc1` [Example 143], the IC50 was 0.85 nM.

Consider `Cc1ccc([N+](=O)[O-])cc1C(=O)Nc1ccc(C[C@H](NC(=O)C2(Cc3ccccc3)CCCC2)C(=O)O)cc1` [Example 36, 4-[[(2-Methyl-5-nitrophenyl)carbonyl]amino]-N-[[1-(phenylmethyl)cyclopentyl]carbonyl]-L-phenylalanine], for which the IC50 was found to be 4.6 nM.

`CCCCC(C)(CC)C(=O)N[C@@H](Cc1ccc(NC(=O)c2c(Cl)cccc2Cl)cc1)C(=O)O` (some centres unmarked) [Example 88]: the 50% inhibitory concentration (IC50) was 3.9 nM.

As for `CCOC(=O)c1ccccc1NC(=O)Nc1ccc(C[C@H](NC(=O)C2(C)CC2(Cl)Cl)C(=O)O)cc1` (some centres unmarked) [Example 121], the 50% inhibitory concentration (IC50) is 66 nM.

Regarding “4-[[(4-Cyano-4-phenyl-1-piperidinyl)carbonyl]amino]-L-phenylalanine on Wang Resin [Example 116]”, the IC50 stood at 0.88 nM.

With `COc1ccc(C2(C(=O)N[C@@H](Cc3ccc(NS(=O)(=O)c4c(C)cc(C)cc4C)cc3)C(=O)O)CCCCC2)cc1` [Example 114, N-[[1-(4-Methoxyphenyl)cyclohexyl]carbonyl]-4-[[(2,4,6-trimethylphenyl)sulfonyl]amino]-L-phenylalanine], the IC50 worked out at 155 nM.

Take `O=C(Nc1ccc(C[C@H](NC(=O)C2(Cc3ccccc3)CCCC2)C(=O)O)cc1)c1ccccc1[N+](=O)[O-]` [Example 35, 4-[[(2-Nitrophenyl)carbonyl]amino]-N-[[1-(phenylmethyl)cyclopentyl]carbonyl]-L-phenylalanine]: the concentration for half-maximal inhibition (IC50) is 5 nM.

On to `CC(=O)N[C@@H](Cc1ccc(O)cc1)C(=O)Nc1ccc(C[C@H](NC(=O)C23CC4CC(CC(C4)C2)C3)C(=O)O)cc1` [Example 86], for which the IC50 was 6.8 nM.

In the case of `COCCC1(C(=O)NC(Cc2ccc(N3C(=O)C(CC(C)C)N(C(C)=O)C3c3ccc(OC)cc3)cc2)C(=O)O)CCCC1` (single isomer, unassigned) [Example 131], the IC50 worked out at 63 nM.

As for `O=C(Nc1ccc(C[C@H](NC(=O)C2(Cc3ccccc3)CCCC2)C(=O)O)cc1)c1c(Cl)cccc1Cl` [Example 37, 4-[[(2,6-Dichlorophenyl)carbonyl]amino]-N-[[1-(phenylmethyl)cyclopentyl]carbonyl]-L-phenylalanine], the IC50 came out at 5 nM.

As to `COc1ccc(CC2(C(=O)N[C@@H](Cc3ccc(N4C(=O)c5ccncc5C4=O)cc3)C(=O)O)CCCC2)cc1` [Example 109, 4-(2,3-Dihydro-1,3-dioxo-1H-pyrrolo[3,4-c]pyridin-2-yl)-N-[[1-[(4-methoxyphenyl)methyl]cyclopentyl]carbonyl]-L-phenylalanine], the IC50 stood at 62 nM.

With `Cc1ccc([N+](=O)[O-])cc1C(=O)Nc1ccc(C[C@H](NC(=O)C23CC4CC(CC(C4)C2)C3)C(=O)O)cc1` [Example 85], the half-inhibitory concentration (IC50) is 0.43 nM.

Consider `CCCCC(C)(CC)C(=O)N[C@@H](Cc1ccc(NC(=O)N2CCC(C#N)(c3ccccc3)CC2)cc1)C(=O)O` (some centres unmarked) [Example 120], for which the IC50 came to 2.9 nM.

On to `Cn1nc(C(C)(C)C)cc1C(=O)NCCC1(C(=O)N[C@@H](Cc2ccc(NC(=O)c3c(Cl)cccc3Cl)cc2)C(=O)O)CCCC1` [Example 167], for which the IC50 turned out to be 9.2 nM.

In the case of `COc1ccc(CC2(C(=O)N[C@@H](Cc3ccc(NC(=O)c4ccccc4[N+](=O)[O-])cc3)C(=O)O)CCCC2)cc1` [Example 41, N-[[1-[(4-Methoxyphenyl)methyl]cyclopentyl]carbonyl]-4-[[(2-nitrophenyl)carbonyl]amino]-L-phenylalanine], the IC50 amounted to 1.7 nM.

As for `COc1ccc(CC2(C(=O)N[C@@H](Cc3ccc(NC(=O)c4ccnc5ccccc45)cc3)C(=O)O)CCCC2)cc1` [Example 40, N-[[1-[(4-Methoxyphenyl)methyl]cyclopentyl]carbonyl]-4-[(4-quinolinylcarbonyl)amino]-L-phenylalanine], the IC50 stood at 2.1 nM.

Consider `O=C(Nc1ccc(C[C@H](NC(=O)C2(c3ccccc3)CCCC2)C(=O)O)cc1)c1ccnc2ccccc12` [Example 75], for which the half-maximal inhibitory concentration (IC50) was 3.8 nM.

As for `COCCC1(C(=O)NC(Cc2ccc(N3C(=O)C(CC(C)C)N(C(C)=O)C3c3ccc(OC)cc3)cc2)C(=O)O)CCCC1` (single isomer, unassigned) [Example 130], the IC50 turned out to be 6.6 nM.

Regarding `COCCC1(C(=O)NC(Cc2ccc(N3C(=O)C(CC(C)C)N(C(C)=O)C3c3ccc(Cl)cc3)cc2)C(=O)O)CCCC1` (single isomer, unassigned) [Example 138], the half-maximal inhibitory concentration (IC50) was determined as 0.42 nM.

Consider `CC1(C(=O)N[C@@H](Cc2ccc(NC(=O)c3ccnc4ccccc34)cc2)C(=O)O)CCCCC1` [Example 70], for which the IC50 was found to be 7 nM.

Take `O=C(Nc1ccc(C[C@H](NC(=O)C23CC4CC(CC(C4)C2)C3)C(=O)O)cc1)c1c(Cl)cccc1Cl` [Example 83]: the concentration for half-maximal inhibition (IC50) amounted to 1.1 nM.

In the case of `COc1ccc(C2(C(=O)N[C@@H](Cc3ccc(N4C(=O)[C@H](CC(C)C)N(C)C4=O)cc3)C(=O)O)CCCCC2)cc1` [Example 144, N-[[1-(4-methoxyphenyl)cyclohexyl]carbonyl]-4-[(4S)-3-methyl-4-(2-methylpropyl)-2,5-dioxo-1-imidazolidinyl]-L-phenylalanine], the IC50 was determined as 0.75 nM.

Consider `COc1ccc(C2(C(=O)N[C@@H](Cc3ccc(N4C(=O)CSC4c4ccc(O)cc4)cc3)C(=O)O)CCCCC2)cc1` (stereo partly drawn) [Example 141, 4-[2-(4-Hydroxyphenyl)-4-oxo-3-thiazolidinyl]-N-[[1-(4-methoxyphenyl)cyclohexyl]carbonyl]-L-phenylalanine], for which the concentration for half-maximal inhibition (IC50) is 3.9 nM.

As for `COCCC1(C(=O)NC(Cc2ccc(N3C(=O)C(CC(C)C)N(C(C)=O)C3c3ccc(OC)cc3)cc2)C(=O)O)CCCC1` (single isomer, unassigned) [Example 137], the concentration for half-maximal inhibition (IC50) stood at 19 nM.

As for `CCCC(C)(CC)C(=O)N[C@@H](Cc1ccc(NC(=O)c2ccnc3ccccc23)cc1)C(=O)O` (some centres unmarked) [Example 68], the half-inhibitory concentration (IC50) came out at 8.2 nM.

For the compound `O=C(Nc1ccc(C[C@H](NC(=O)C23CC4CC(CC(C4)C2)C3)C(=O)O)cc1)c1ccnc2ccccc12` [Example 65], the IC50 is 2.4 nM.

Consider `COc1ccc(C2(C(=O)N[C@@H](Cc3ccc(N4C(=O)CSC4c4ccc5ccccc5c4)cc3)C(=O)O)CCCCC2)cc1` (stereo partly drawn) [Example 142, N-[[1-(4-methoxyphenyl)cyclohexyl]carbonyl]-4-[2-(2-naphthyl)-4-oxo-3-thiazolidinyl]-L-phenylalanine], for which the IC50 was 1.7 nM.

As for `O=C(Nc1ccc(CC(NC(=O)C23CC4CC(CC(C4)C2)C3)C(=O)O)cc1)c1ccc(F)cc1C(F)(F)F` (centres unmarked) [Example 84], the 50% inhibitory concentration (IC50) turned out to be 4.4 nM.

For the compound `N#CC1(C(=O)N[C@@H](Cc2ccc(NC(=O)CCN3CCCCC3)cc2)C(=O)O)CCCC1` [Example 92], the half-inhibitory concentration (IC50) is 3 nM.

Take `COCCC1(C(=O)NC(Cc2ccc(N3C(=O)C(CC(C)C)N(C(C)=O)C3c3ccc(Cl)cc3)cc2)C(=O)O)CCCC1` (single isomer, unassigned) [Example 139]: the IC50 stood at 38 nM.

For the compound `CCCCC(C)(CC)C(=O)N[C@@H](Cc1ccc(NC(=O)c2ccc(F)cc2C(F)(F)F)cc1)C(=O)O` (some centres unmarked) [Example 89], the half-maximal inhibitory concentration (IC50) worked out at 81 nM.

Values taken from US6455550B1, “N-alkanoylphenylalanine derivatives” (Hoffmann-La Roche Inc., priority 1997, dated 2002).
